Source: patent US20160376605A1, “WHEAT PLANTS HAVING INCREASED TOLERANCE TO IMIDAZOLINONE HERBICIDES” (BASF SE, priority 2003, published 2016)

How the values were obtained:
[1] = test system: Fifteen Durum lines, each derived from a different M2 plant; test: Greenhouse Trial: all fifteen mutagenesis-derived lines; assay type: in vivo, Durum wheat; settings: 100 and 160 g/ha imazamox
Description: Fifteen Durum lines, each derived from a different M2 plant, and two wild type durum lines were evaluated for tolerance to the imidazolinone herbicide imazamox at rates of 100 and 160 g/ha in a greenhouse trial. Evaluations of tolerance were made at 14 and 21 days after treatment. Injury was scored on a 0-9 scale, with 0 representing no injury and 9 plant death.
(§1) A rate of 35 g/ha imazamox is adequate to kill susceptible Durum wheat.

susceptible durum wheat = test: Imazamox rate killing susceptible wheat; assay type: in vivo
Description: Nine M4:6 lines derived from four M2 plants (C119, C132, C137, CO12) were evaluated in a replicated trial at one location in a durum growing area in Italy. 75 g/ha of imazamox was applied to BBCH growth stage 21-25 plants. A rate of 35 g/ha would typically result in virtually 100% mortality of susceptible wheat. Percent crop response (overall injury) varied from 0 to 13% 21 days after treatment (DAT), and from 0 to 17% 43 DAT. Yield as a percent of the same line untreated varied from 85% to 102%.
(§2) All tested lines survived at both rates of herbicide treatment, whereas all plants of the wild type were killed at both rates. Based on comparison to the wild type line, all lines tested expressed considerable tolerance to the applied rates, particularly when looking at height reduction relative to untreated plots. A rate of 35 g/ha imazamox is adequate to kill susceptible durum wheat.
as §1

[2] = test system: Durum wheat M3:4 lines derived from M2 plant UT16; test: Field Trials (2): tolerance scores at two rates of imazamox; assay type: in vivo; settings: UT16, range across M3:4 lines
From the text: (§3) One hundred ten M3:4 lines derived from sixteen M2 plants were screened at 71 g/ha and 160 g/ha imazamox. The number of M4 lines per M2 plant varied from one to twenty. Tolerance of M3:4 lines was compared to untreated plots of the same line as well as to treated plots of a wild-type cultivar from which some of them were derived.
as §2

[3] = test system: Durum wheat M3:4 lines derived from M2 plant UT10; test: as above; assay type: in vivo; settings: UT10, range across M3:4 lines
From the text: as §3, §2

[4] = test system: Durum wheat M3:4 lines derived from M2 plant UT17; test: as above; assay type: in vivo; settings: UT17, range across M3:4 lines
From the text: as §3, §2

[5] = test system: Durum wheat M3:4 lines derived from M2 plant UT01; test: as above; assay type: in vivo; settings: UT01, range across M3:4 lines
From the text: as §3, §2

[6] = test system: Durum wheat M3:4 lines derived from M2 plant UT13; test: as above; assay type: in vivo; settings: UT13, range across M3:4 lines
From the text: as §3, §2

[7] = test system: Durum wheat M3:4 lines derived from M2 plant UT20; test: as above; assay type: in vivo; settings: UT20, range across M3:4 lines
From the text: as §3, §2

[8] = test system: Durum wheat M3:4 lines derived from M2 plant UT14; test: as above; assay type: in vivo; settings: UT14, range across M3:4 lines
From the text: as §3, §2

[9] = test system: Durum wheat M3:4 lines derived from M2 plant UT07; test: as above; assay type: in vivo; settings: UT07, range across M3:4 lines
From the text: as §3, §2

[10] = test system: Wild Type durum wheat cultivar; test: as above; assay type: in vivo; settings: for % Chlorosis / % Height Reduction: Wild Type
From the text: as §3, §2

[11] = test system: Durum wheat M3:4 lines derived from M2 plant UT12; test: as above; assay type: in vivo; settings: UT12, range across M3:4 lines
From the text: as §3, §2

`COCc1cnc(C2=NC(C)(C(C)C)C(=O)N2)c(C(=O)O)c1` (stereo not drawn) [imazamox] was tested. Which tolerance to imazamox [1] did it give?
The tolerance to imazamox was “excellent tolerance”.

What about the “rate adequate to kill susceptible durum wheat” value (susceptible durum wheat; imazamox application rate) of the same molecule?
Its value is 35 g/ha.

What about the mortality at 35 g/ha (susceptible durum wheat; read-out: mortality of susceptible wheat) of the same molecule?
The mortality at 35 g/ha was about 100%.

What about the “% Chlorosis” value ([2]; imazamox 71 g/ha, 14 DAT) of the same molecule?
The value was 5-10%.

What about the “% Height Reduction” value ([2]; imazamox 71 g/ha, 14 DAT) of the same molecule?
The value was 0%.

And the “% Chlorosis” value ([2]; imazamox 71 g/ha, 30 DAT)?
The value was 0%.

And the “% Height Reduction” value ([2]; imazamox 71 g/ha, 30 DAT)?
Its value is 0-10%.

And the “% Chlorosis” value ([2]; imazamox 160 g/ha, 14 DAT)?
Its value is 10-20%.

And the “% Height Reduction” value ([2]; imazamox 160 g/ha, 14 DAT)?
Its value is 0-10%.

And the “% Chlorosis” value ([2]; imazamox 160 g/ha, 30 DAT)?
Its value is 0-5%.

And the “% Height Reduction” value ([2]; imazamox 160 g/ha, 30 DAT)?
The value was 0-10%.

And the “% Chlorosis” value ([3]; imazamox 71 g/ha, 14 DAT)?
Its value is 5-10%.

And the “% Height Reduction” value ([3]; imazamox 71 g/ha, 14 DAT)?
The value was 0-10%.

And the “% Chlorosis” value ([3]; imazamox 71 g/ha, 30 DAT)?
Its value is 5%.

What about the “% Height Reduction” value ([3]; imazamox 71 g/ha, 30 DAT) of the same molecule?
Its value is 0-5%.

And the “% Chlorosis” value ([3]; imazamox 160 g/ha, 14 DAT)?
The value was 10%.

What about the “% Height Reduction” value ([3]; imazamox 160 g/ha, 14 DAT) of the same molecule?
The value was 0-20%.

And the “% Chlorosis” value ([3]; imazamox 160 g/ha, 30 DAT)?
The value was 5%.

And the “% Height Reduction” value ([3]; imazamox 160 g/ha, 30 DAT)?
The value was 0-10%.

What about the “% Chlorosis” value ([4]; imazamox 71 g/ha, 14 DAT) of the same molecule?
Its value is 5-20%.

And the “% Height Reduction” value ([4]; imazamox 71 g/ha, 14 DAT)?
The value was 0-20%.

What about the “% Chlorosis” value ([4]; imazamox 71 g/ha, 30 DAT) of the same molecule?
The value was 0%.

And the “% Height Reduction” value ([4]; imazamox 71 g/ha, 30 DAT)?
The value was 5-20%.

And the “% Chlorosis” value ([4]; imazamox 160 g/ha, 14 DAT)?
Its value is 5-30%.

What about the “% Height Reduction” value ([4]; imazamox 160 g/ha, 14 DAT) of the same molecule?
Its value is 0-30%.

And the “% Chlorosis” value ([4]; imazamox 160 g/ha, 30 DAT)?
The value was 0-5%.

And the “% Height Reduction” value ([4]; imazamox 160 g/ha, 30 DAT)?
The value was 5-30%.

And the “% Chlorosis” value ([5]; imazamox 71 g/ha, 14 DAT)?
The value was 0-10%.

What about the “% Height Reduction” value ([5]; imazamox 71 g/ha, 14 DAT) of the same molecule?
The value was 0%.

What about the “% Chlorosis” value ([5]; imazamox 71 g/ha, 30 DAT) of the same molecule?
The value was 0%.

And the “% Height Reduction” value ([5]; imazamox 71 g/ha, 30 DAT)?
Its value is 0-10%.

What about the “% Chlorosis” value ([5]; imazamox 160 g/ha, 14 DAT) of the same molecule?
The value was 1-10%.

What about the “% Height Reduction” value ([5]; imazamox 160 g/ha, 14 DAT) of the same molecule?
Its value is 0%.

What about the “% Chlorosis” value ([5]; imazamox 160 g/ha, 30 DAT) of the same molecule?
Its value is 0-5%.

What about the “% Height Reduction” value ([5]; imazamox 160 g/ha, 30 DAT) of the same molecule?
The value was 0-20%.

And the “% Chlorosis” value ([6]; imazamox 71 g/ha, 14 DAT)?
The value was 5%.

And the “% Height Reduction” value ([6]; imazamox 71 g/ha, 14 DAT)?
The value was 0-10%.

What about the “% Chlorosis” value ([6]; imazamox 71 g/ha, 30 DAT) of the same molecule?
Its value is 5%.

And the “% Height Reduction” value ([6]; imazamox 71 g/ha, 30 DAT)?
Its value is 5%.

What about the “% Chlorosis” value ([6]; imazamox 160 g/ha, 14 DAT) of the same molecule?
The value was 5%.

What about the “% Height Reduction” value ([6]; imazamox 160 g/ha, 14 DAT) of the same molecule?
The value was 0-10%.

What about the “% Chlorosis” value ([6]; imazamox 160 g/ha, 30 DAT) of the same molecule?
Its value is 5-10%.

And the “% Height Reduction” value ([6]; imazamox 160 g/ha, 30 DAT)?
Its value is 5%.

And the “% Chlorosis” value ([7]; imazamox 71 g/ha, 14 DAT)?
The value was 0-5%.

And the “% Height Reduction” value ([7]; imazamox 71 g/ha, 14 DAT)?
The value was 0%.

And the “% Chlorosis” value ([7]; imazamox 71 g/ha, 30 DAT)?
Its value is 0%.

And the “% Height Reduction” value ([7]; imazamox 71 g/ha, 30 DAT)?
Its value is 5-10%.

What about the “% Chlorosis” value ([7]; imazamox 160 g/ha, 14 DAT) of the same molecule?
Its value is 5-10%.

What about the “% Height Reduction” value ([7]; imazamox 160 g/ha, 14 DAT) of the same molecule?
The value was 0-20%.

What about the “% Chlorosis” value ([7]; imazamox 160 g/ha, 30 DAT) of the same molecule?
The value was 0%.

What about the “% Height Reduction” value ([7]; imazamox 160 g/ha, 30 DAT) of the same molecule?
Its value is 10-15%.

And the “% Chlorosis” value ([8]; imazamox 71 g/ha, 14 DAT)?
Its value is 5-10%.

What about the “% Height Reduction” value ([8]; imazamox 71 g/ha, 14 DAT) of the same molecule?
The value was 0%.

And the “% Chlorosis” value ([8]; imazamox 71 g/ha, 30 DAT)?
Its value is 0%.

And the “% Height Reduction” value ([8]; imazamox 71 g/ha, 30 DAT)?
The value was 0-10%.

And the “% Chlorosis” value ([8]; imazamox 160 g/ha, 14 DAT)?
Its value is 10%.

What about the “% Height Reduction” value ([8]; imazamox 160 g/ha, 14 DAT) of the same molecule?
Its value is 0-10%.

And the “% Chlorosis” value ([8]; imazamox 160 g/ha, 30 DAT)?
The value was 0%.

What about the “% Height Reduction” value ([8]; imazamox 160 g/ha, 30 DAT) of the same molecule?
Its value is 0-10%.

And the “% Chlorosis” value ([9]; imazamox 71 g/ha, 14 DAT)?
The value was 0-5%.

What about the “% Height Reduction” value ([9]; imazamox 71 g/ha, 14 DAT) of the same molecule?
The value was 0-10%.

What about the “% Chlorosis” value ([9]; imazamox 71 g/ha, 30 DAT) of the same molecule?
Its value is 0-10%.

And the “% Height Reduction” value ([9]; imazamox 71 g/ha, 30 DAT)?
The value was 0-5%.

And the “% Chlorosis” value ([9]; imazamox 160 g/ha, 14 DAT)?
Its value is 5-10%.

And the “% Height Reduction” value ([9]; imazamox 160 g/ha, 14 DAT)?
Its value is 0-10%.

What about the “% Chlorosis” value ([9]; imazamox 160 g/ha, 30 DAT) of the same molecule?
The value was 5-15%.

And the “% Height Reduction” value ([9]; imazamox 160 g/ha, 30 DAT)?
Its value is 0-10%.

What about the “% Chlorosis” value ([10]; imazamox 71 g/ha, 14 DAT) of the same molecule?
The value was 90%.

What about the “% Height Reduction” value ([10]; imazamox 71 g/ha, 14 DAT) of the same molecule?
Its value is 100%.

What about the “% Chlorosis” value ([10]; imazamox 71 g/ha, 30 DAT) of the same molecule?
The value was 100%.

What about the “% Height Reduction” value ([10]; imazamox 71 g/ha, 30 DAT) of the same molecule?
Its value is 100%.

And the “% Chlorosis” value ([10]; imazamox 160 g/ha, 14 DAT)?
The value was 90%.

And the “% Height Reduction” value ([10]; imazamox 160 g/ha, 14 DAT)?
Its value is 100%.

And the “% Chlorosis” value ([10]; imazamox 160 g/ha, 30 DAT)?
The value was 100%.

And the “% Height Reduction” value ([10]; imazamox 160 g/ha, 30 DAT)?
Its value is 100%.

What about the “survival of wild type plants” value ([10]; imazamox 71 g/ha and 160 g/ha (both rates), all plants of the wild type) of the same molecule?
The value was “killed”.

And the “% Chlorosis” value ([11]; imazamox 71 g/ha, 14 DAT)?
Its value is 0-10%.

And the “% Height Reduction” value ([11]; imazamox 71 g/ha, 14 DAT)?
Its value is 0-10%.

What about the “% Chlorosis” value ([11]; imazamox 71 g/ha, 30 DAT) of the same molecule?
Its value is 0-5%.

And the “% Height Reduction” value ([11]; imazamox 71 g/ha, 30 DAT)?
Its value is 0-10%.

And the “% Chlorosis” value ([11]; imazamox 160 g/ha, 14 DAT)?
The value was 10-15%.

And the “% Height Reduction” value ([11]; imazamox 160 g/ha, 14 DAT)?
The value was 10-20%.

What about the “% Chlorosis” value ([11]; imazamox 160 g/ha, 30 DAT) of the same molecule?
The value was 5-10%.

What about the “% Height Reduction” value ([11]; imazamox 160 g/ha, 30 DAT) of the same molecule?
The value was 5-10%.
